These results are taken from patent US9980943B2, “Methods of treating muscular dystrophy” (BOARD OF REGENTS OF THE NEVADA SYSTEM OF HIGHER EDUCATION, …, priority 2013, dated 2018).

Holding throughout (type): cell-based, mouse
Assay [1] deals with α7 integrin (LacZ reporter in α7βgal+/− myoblasts). Kind of assay: Myoblast α7+/LacZ integrin FDG assay (Burkin assay in myoblasts, 96-well). Conditions: α7+/LacZ myoblasts, 96-well.
Assay [2] concerns β-galactosidase in CMV-LacZ C2C12 myotubes. Nature of the assay: CMV-LacZ secondary screen in C2C12 myotubes (β-Gal stabilizing assay). Conditions: C2C12 CMV-LacZ myotubes, fold relative to DMSO. The method in brief:
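β-Gal level was the read-out, measured in a clonal C2C12 line expressing LacZ from a CMV promoter. Dose-response curves used six concentrations, 0.5 μM up to 40 μM, with duplicate points.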

Assay [3] deals with α7 integrin (LacZ reporter in α7+/LacZ myotubes). Kind of assay: Myotube α7 integrin FDG assay (Burkin assay in myotubes, 96-well). Conditions: myotubes.

In the case of `COc1ccc(Nc2ncnc3ccc(Br)cc23)cc1OC` [MLS001196422-01], the fold induction at 0.5 µM in assay [1] (Mus musculus, Myoblast, 48 h, 0.5 uM, read-out: Burkin Assay in Myoblasts, signal relative to DMSO) worked out at 0.746; in assay [3] (Mus musculus, Myotube, 0.5 uM, read-out: Burkin Assay in Myotubes, α7 integrin LacZ reporter signal relative to DMSO), 0.976. The fold induction at 1 µM in assay [1] (Mus musculus, Myoblast, 48 h, 1 uM, read-out: Burkin Assay in Myoblasts, signal relative to DMSO) came to 0.978; in assay [3] (Mus musculus, Myotube, 1 uM, read-out: Burkin Assay in Myotubes, α7 integrin LacZ reporter signal relative to DMSO), 1.14. The fold induction at 5 µM in assay [1] (Mus musculus, Myoblast, 48 h, 5 uM, read-out: Burkin Assay in Myoblasts, signal relative to DMSO) stood at 1.23; in assay [2] (Mus musculus, 5 uM, read-out: CMV-LACZ in Myotubes, signal relative to DMSO), 0.896; in assay [3] (Mus musculus, Myotube, 5 uM, read-out: Burkin Assay in Myotubes, α7 integrin LacZ reporter signal relative to DMSO), 1.19. Also, the fold induction at 10 µM in assay [1] (Mus musculus, Myoblast, 48 h, 10 uM, read-out: Burkin Assay in Myoblasts, signal relative to DMSO) was 1.33; in assay [2] (Mus musculus, 10 uM, read-out: CMV-LACZ in Myotubes, signal relative to DMSO), 0.893; in assay [3] (Mus musculus, Myotube, 10 uM, read-out: Burkin Assay in Myotubes, α7 integrin LacZ reporter signal relative to DMSO), 1.32. For the same compound, the fold induction at 20 µM in assay [1] (Mus musculus, Myoblast, 48 h, 20 uM, read-out: Burkin Assay in Myoblasts, signal relative to DMSO) stood at 1.25; in assay [2] (Mus musculus, 20 uM, read-out: CMV-LACZ in Myotubes, signal relative to DMSO), 0.83; in assay [3] (Mus musculus, Myotube, 20 uM, read-out: Burkin Assay in Myotubes, α7 integrin LacZ reporter signal relative to DMSO), 1.09. In addition, the fold induction at 40 µM in assay [1] (Mus musculus, Myoblast, 48 h, 40 uM, read-out: Burkin Assay in Myoblasts, signal relative to DMSO) came out at 1; in assay [2] (Mus musculus, 40 uM, read-out: CMV-LACZ in Myotubes, signal relative to DMSO), 0.856; in assay [3] (Mus musculus, Myotube, 40 uM, read-out: Burkin Assay in Myotubes, α7 integrin LacZ reporter signal relative to DMSO), 0.975.

Take `Cc1cccn2c(=O)c3cc(C(=O)NC4CCCCC4)n(C)c3nc12` [MLS001117351-01]: the “Burkin Assay in Myoblasts, signal relative to DMSO” value in assay [1] (0.5 uM) amounted to 1.103; in assay [1] (1 uM) it was 1.105; in assay [1] (5 uM) it was 0.7718; in assay [1] (10 uM), 0.7445; in assay [1] (20 uM) it was 0.7137; in assay [1] (40 uM) it was 0.4323. Moreover, the “CMV-LACZ in Myotubes, signal relative to DMSO” value in assay [2] (5 uM) is 1.016; in assay [2] (10 uM), 1.088; in assay [2] (20 uM) it was 1.1481; in assay [2] (40 uM), 0.8952. Besides, the “Burkin Assay in Myotubes, α7 integrin LacZ reporter signal relative to DMSO” value is 1.025 in assay [3] (0.5 uM); 0.9924 in assay [3] (1 uM); 0.8315 in assay [3] (5 uM); 0.9463 in assay [3] (10 uM); 0.7669 in assay [3] (20 uM); 0.6986 in assay [3] (40 uM).

For the compound `COC(=O)Cc1c(O)ccn(Cc2ccc3c(c2)OCO3)c1=O` [MLS000721525-01], the “Burkin Assay in Myoblasts, value relative to DMSO” value amounted to 1.086 in assay [1] (0.5 uM); 1.086 in assay [1] (1 uM); 0.9834 in assay [1] (5 uM); 1.01 in assay [1] (10 uM); 0.9936 in assay [1] (20 uM); 0.985 in assay [1] (40 uM). The “CMV-LACZ in Myotubes, signal relative to DMSO” value came out at 0.866 in assay [2] (5 uM), 1.036 in assay [2] (10 uM), 0.8409 in assay [2] (20 uM) and 0.9127 in assay [2] (40 uM). Besides, the “Burkin Assay in Myotubes (signal relative to DMSO)” value in assay [3] (0.5 uM) was 0.6646; in assay [3] (1 uM) it was 0.9136; in assay [3] (5 uM), 0.6693; in assay [3] (10 uM) it was 0.9806; in assay [3] (20 uM), 0.8968; in assay [3] (40 uM), 1.047.

For the compound `Cc1cc(C)nc(NC(=O)c2ccc(Cl)cc2Cl)n1` [MLS000706349-01], the “Burkin Assay in Myoblasts, signal relative to DMSO” value was determined as 1.086 in assay [1] (0.5 uM); 0.9797 in assay [1] (1 uM); 0.8593 in assay [1] (5 uM); 0.8434 in assay [1] (10 uM); 0.8584 in assay [1] (20 uM); 0.6533 in assay [1] (40 uM). The “CMV-LACZ in Myotubes, signal relative to DMSO” value in assay [2] (5 uM) stood at 0.9465; in assay [2] (10 uM), 0.9553; in assay [2] (20 uM) it was 1.0245; in assay [2] (40 uM), 1.1355. Moreover, the “Burkin Assay in Myotubes, α7 integrin LacZ reporter signal relative to DMSO” value in assay [3] (0.5 uM) was 1.193; in assay [3] (1 uM) it was 1.008; in assay [3] (5 uM) it was 0.9738; in assay [3] (10 uM), 0.9294; in assay [3] (20 uM), 1.073; in assay [3] (40 uM), 0.9239.
